In ChEMBL document CHEMBL4004849, “Tetrazolylmethyl quinolines: Design, docking studies, synthesis, anticancer and antifungal analyses” (2017):
≈ marks a conversion by molar mass, not a printed value. Calls of active or inactive are those of the source. No cut-off for these calls is given here.

Key:
Type in all cases: functional
HL-60(TB) = experiment: Growth inhibition of human HL-60(TB) cells at 10^-5 M incubated for 48 hrs by sulforhodamine B assay relative to control
K562 = experiment: Growth inhibition of human K562 cells at 10^-5 M incubated for 48 hrs by sulforhodamine B assay relative to control
MOLT-4 = experiment: Growth inhibition of human MOLT4 cells at 10^-5 M incubated for 48 hrs by sulforhodamine B assay relative to control
SR = experiment: Growth inhibition of human SR cells at 10^-5 M incubated for 48 hrs by sulforhodamine B assay relative to control
A549 = experiment: Growth inhibition of human A549/ATCC cells at 10^-5 M incubated for 48 hrs by sulforhodamine B assay relative to control
EKVX = experiment: Growth inhibition of human EKVX cells at 10^-5 M incubated for 48 hrs by sulforhodamine B assay relative to control
NCI-H226 = experiment: Growth inhibition of human NCI-H226 cells at 10^-5 M incubated for 48 hrs by sulforhodamine B assay relative to control
NCI-H23 = experiment: Growth inhibition of human NCI-H23 cells at 10^-5 M incubated for 48 hrs by sulforhodamine B assay relative to control
NCI-H460 = experiment: Growth inhibition of human NCI-H460 cells at 10^-5 M incubated for 48 hrs by sulforhodamine B assay relative to control
NCI-H522 = experiment: Growth inhibition of human NCI-H522 cells at 10^-5 M incubated for 48 hrs by sulforhodamine B assay relative to control
HCC 2998 = experiment: Growth inhibition of human HCC2998 cells at 10^-5 M incubated for 48 hrs by sulforhodamine B assay relative to control
HCT-116 = experiment: Growth inhibition of human HCT116 cells at 10^-5 M incubated for 48 hrs by sulforhodamine B assay relative to control
HCT-15 = experiment: Growth inhibition of human HCT15 cells at 10^-5 M incubated for 48 hrs by sulforhodamine B assay relative to control
KM12 = experiment: Growth inhibition of human KM12 cells at 10^-5 M incubated for 48 hrs by sulforhodamine B assay relative to control
SF-295 = experiment: Growth inhibition of human SF295 cells at 10^-5 M incubated for 48 hrs by sulforhodamine B assay relative to control
SNB-19 = experiment: Growth inhibition of human SNB19 cells at 10^-5 M incubated for 48 hrs by sulforhodamine B assay relative to control
U-251 = experiment: Growth inhibition of human U251 cells at 10^-5 M incubated for 48 hrs by sulforhodamine B assay relative to control
LOX IMVI = experiment: Growth inhibition of human LOXIMVI cells at 10^-5 M incubated for 48 hrs by sulforhodamine B assay relative to control
Malme-3M = experiment: Growth inhibition of human MALME-3M cells at 10^-5 M incubated for 48 hrs by sulforhodamine B assay relative to control
M14 = experiment: Growth inhibition of human M14 cells at 10^-5 M incubated for 48 hrs by sulforhodamine B assay relative to control
MDA-MB-435 = experiment: Growth inhibition of human MDA-MB-435 cells at 10^-5 M incubated for 48 hrs by sulforhodamine B assay relative to control
SK-MEL-2 = experiment: Growth inhibition of human SK-MEL-2 cells at 10^-5 M incubated for 48 hrs by sulforhodamine B assay relative to control
SK-MEL-28 = experiment: Growth inhibition of human SK-MEL-28 cells at 10^-5 M incubated for 48 hrs by sulforhodamine B assay relative to control
SK-MEL-5 = experiment: Growth inhibition of human SK-MEL-5 cells at 10^-5 M incubated for 48 hrs by sulforhodamine B assay relative to control
UACC-257 = experiment: Growth inhibition of human UACC257 cells at 10^-5 M incubated for 48 hrs by sulforhodamine B assay relative to control
UACC-62 = experiment: Growth inhibition of human UACC62 cells at 10^-5 M incubated for 48 hrs by sulforhodamine B assay relative to control
IGROV-1 = experiment: Growth inhibition of human IGROV1 cells at 10^-5 M incubated for 48 hrs by sulforhodamine B assay relative to control
OVCAR-3 = experiment: Growth inhibition of human OVCAR3 cells at 10^-5 M incubated for 48 hrs by sulforhodamine B assay relative to control
OVCAR-4 = experiment: Growth inhibition of human OVCAR4 cells at 10^-5 M incubated for 48 hrs by sulforhodamine B assay relative to control
OVCAR-5 = experiment: Growth inhibition of human OVCAR5 cells at 10^-5 M incubated for 48 hrs by sulforhodamine B assay relative to control
OVCAR-8 = experiment: Growth inhibition of human OVCAR8 cells at 10^-5 M incubated for 48 hrs by sulforhodamine B assay relative to control
SK-OV-3 = experiment: Growth inhibition of human SKOV3 cells at 10^-5 M incubated for 48 hrs by sulforhodamine B assay relative to control
786-0 = experiment: Growth inhibition of human 786-0 cells at 10^-5 M incubated for 48 hrs by sulforhodamine B assay relative to control
ACHN = experiment: Growth inhibition of human ACHN cells at 10^-5 M incubated for 48 hrs by sulforhodamine B assay relative to control
RXF 393 = experiment: Growth inhibition of human RXF393 cells at 10^-5 M incubated for 48 hrs by sulforhodamine B assay relative to control
SN12C = experiment: Growth inhibition of human SN12C cells at 10^-5 M incubated for 48 hrs by sulforhodamine B assay relative to control
UO-31 = experiment: Growth inhibition of human UO31 cells at 10^-5 M incubated for 48 hrs by sulforhodamine B assay relative to control
MCF7 = experiment: Growth inhibition of human MCF7 cells at 10^-5 M incubated for 48 hrs by sulforhodamine B assay relative to control
MDA-MB-231 = experiment: Growth inhibition of human MDA-MB-231/ATCC cells at 10^-5 M incubated for 48 hrs by sulforhodamine B assay relative to control
BT-549 = experiment: Growth inhibition of human BT549 cells at 10^-5 M incubated for 48 hrs by sulforhodamine B assay relative to control
MDA-MB-468 = experiment: Growth inhibition of human MDA-MB-468 cells at 10^-5 M incubated for 48 hrs by sulforhodamine B assay relative to control
Candida albicans [1] = experiment: Antifungal activity against Candida albicans at 100 ug/ml by disc diffusion method; conditions: read-out: IZ
Candida albicans [2] = experiment: Antifungal activity against Candida albicans after 24 hrs by serial dilution method
Aspergillus fumigatus [3] = experiment: Antifungal activity against Aspergillus fumigatus at 100 ug/ml by disc diffusion method; conditions: read-out: IZ
Aspergillus fumigatus [4] = experiment: Antifungal activity against Aspergillus fumigatus after 24 hrs by serial dilution method

## Clc1nc2ccccc2cc1Cn1nnnc1CSc1ccccc1
HL-60(TB)
  growth inhibition (GI): Active
K562
  growth inhibition (GI): Active
MOLT-4
  growth inhibition (GI): Active
SR
  growth inhibition (GI): Active
A549
  growth inhibition (GI): Active
EKVX
  growth inhibition (GI): Active
NCI-H226
  growth inhibition (GI): Active
NCI-H23
  growth inhibition (GI): Active
NCI-H460
  growth inhibition (GI): Active
NCI-H522
  growth inhibition (GI): Active
HCC 2998
  growth inhibition (GI): Active
HCT-116
  growth inhibition (GI): Active
HCT-15
  growth inhibition (GI): Active
KM12
  growth inhibition (GI): Active
SF-295
  growth inhibition (GI): Active
SNB-19
  growth inhibition (GI): Active
U-251
  growth inhibition (GI): Active
LOX IMVI
  growth inhibition (GI): Active
Malme-3M
  growth inhibition (GI): Active
M14
  growth inhibition (GI): Active
MDA-MB-435
  growth inhibition (GI): Active
SK-MEL-2
  growth inhibition (GI): Active
SK-MEL-28
  growth inhibition (GI): Active
SK-MEL-5
  growth inhibition (GI): Active
UACC-257
  growth inhibition (GI): Active
UACC-62
  growth inhibition (GI): Active
IGROV-1
  growth inhibition (GI): Active
OVCAR-3
  growth inhibition (GI): Active
OVCAR-4
  growth inhibition (GI): Active
OVCAR-5
  growth inhibition (GI): Active
OVCAR-8
  growth inhibition (GI): Active
SK-OV-3
  growth inhibition (GI): Active
786-0
  growth inhibition (GI): Active
ACHN
  growth inhibition (GI): Active
RXF 393
  growth inhibition (GI): Active
SN12C
  growth inhibition (GI): Active
UO-31
  growth inhibition (GI): Active
MCF7
  growth inhibition (GI): Active
MDA-MB-231
  growth inhibition (GI): Active
BT-549
  growth inhibition (GI): Active
MDA-MB-468
  growth inhibition (GI): Active
Candida albicans [1]
  zone of inhibition at 100 µg/mL: 12 mm
Candida albicans [2]
  MIC: 10 µg/mL (≈ 27.2 µM)
Aspergillus fumigatus [3]
  zone of inhibition at 100 µg/mL: 16 mm
Aspergillus fumigatus [4]
  MIC: 25 µg/mL (≈ 68 µM)
